“And” between values parts separate entries of the source, which are not always exact repeats. Equal entries are not always repeated. Where two headings read alike, the source gives them in different places. Each block holds one compound with its values, some of them ahead of it.
Key:
[1] = test system: human PBMC; assay: Proliferation of PHA-stimulated human PBMC (MTT); type: cell-based; details: for IC50: MTT after 48 hours
Protocol: (§1) (a). Effect on proliferation and IFN-γ production of human peripheral blood mononuclear cells (PBMC) stimulated by phytochemagglutinin (PHA).
(§2) Experiment: PBMC were cultured with PHA and cultured with titrated concentrations of compounds or solvent, or media alone using standard cell culture techniques. The MTT assay was performed after 48 hours of culture. Supernatants were collected after 48 hours of culture and levels of IFN-γ were assayed by ELISA.

[2] = test system: TNF-α; assay: Endotoxemia mouse model, serum TNF-α after LPS; type: in vivo; details: for TNF-α levels in mice blood induced by LPS: P<0.05; for TNF-α: serum 150 min after LPS 40 mg/kg IP, compounds 25 mg/kg then 3 x 12.5 mg/kg IP (dexamethasone 0.4 then 3 x 0.2 mg/kg)
Description: The in vivo endotoxemia model used in these studies represents a mouse showing the early inflammatory response. Such severe infection can be caused by Gram negative bacteria may lead to the development of septic shock. This toxicity is caused by the lipopolysaccharide (LPS) component of the bacterial cell wall, and injection of LPS into mice can mimic the physiological response typical of the septic shock syndrome. LPS-mediated toxicity is due to the release of cytokines such as TNF-α, IL-1 and IFN-γ by activated macrophages, and the degree of toxicity can be measured by the level of these cytokines in the blood.
Experiment: Test compounds were dissolved and formulated in 50% PEG-400 in water. Female Balb/c mice (˜20 g) were first injected separately intraperitoneally (IP) with 25 mg/kg of each test compound, then challenged by injection with 40 mg/kg lipopolysaccharide (LPS) (IP) 30 minutes later. One drug injection with 12.5 mg/kg of test compound was done at the same time as (LPS challenge and two subsequent sequential injections at 30 minutes intervals. Positive control of dexamethasone was administered in a similar manner starting at 0.4 mg/kg and subsequently 0.2 mg/kg for three additional injections. Mice were sacrificed and blood collected by cardiac puncture 150 minutes after LPS challenge. The serum TNF-α levels were determined by ELISA. Each test group was comprised of six mice. Group of mice injected with the vehicle alone was used as negative control.

[3] = test system: VEGF; assay: VEGF protein expression of keratinocytes induced by rhTGF-α (ELISA); type: cell-based, human; details: for VEGF: supernatant, rhTGF-α 100 ng/ml, 24 h
Protocol: Experiment: Compound 39B was dissolved in DMSO, diluted with keratinocyte-serum-free medium (KC-SFM) to 10^3 μg/ml, further diluted with the culture medium and tested at the following concentrations: 10, 1, 0.1 and 0.01 μg/ml. Prime cultures of keratinocytes were obtained from a commercial source and maintained with KC-SFM at a cell density of 10^6/ml. In the test, cells were cultured in 24-well plates and incubated at 37° C. in 5% CO2 first for 4 h, and then treated with rhTGF-α (final concentration 100 ng/ml) and the test compound at different concentrations (0.01-10 μg/ml). Medium without test compound was the negative control. The culture supernatant from each well was separately collected after an additional 24 h incubation and centrifuged at 2000 rpm for 5 minutes before measuring the VEGF concentration. VEGF concentration in the supernatant in each well was calculated based on measurements taken using an ELISA kit, according to the manufacturer's instructions.

[4] = test system: IFN-γ; assay: IFN-γ production by PHA-stimulated human PBMC (ELISA); type: cell-based; details: for IC50: PHA-stimulated human PBMC, supernatant after 48 hours, ELISA
Protocol: as §1, §2

[5] = test system: TPA-induced ear edema; assay: TPA-induced ear edema model; type: in vivo, mouse; details: TPA 0.01%, ear thickness 6 hours after TPA
Protocol: Experiment: Three representative compounds, 5-(2-phenylethenyl)-2-1-propyl-1,3-benzenediol, as previously reported, a closely related stilbene derivative (WO 0142231) and compound 39B, a novel compound of the current invention, were assayed against the edema on female mice (Balb/c) aged 10-12 weeks, using 0.01% Calcitriol (a commercial standard) as a positive control. Phorbol-12-myristate-13-acetate (TPA) was used as the edema inducer. TPA and the test compounds were all dissolved in 100% ethanol and 20 μl applied on the right ear of the mouse with six mice per group. The TPA concentration used was 0.01% (w/v). Ear thickness was measured 6 hours after TPA treatment to determine if edema was decreased. In each experiment replicated groups of TPA treated mice were treated with either 5-(2-phenylethenyl)-2-1-propyl-1,3-benzenediol, Calcitriol, compound 39B or only ethanol, and the level of inhibition was obtained by measuring the thickness of the ear and expressing the difference in thickness of the treated ear from that of the ethanol treated ear, as a percentage.

[6] = test system: DSS-induced IBD; assay: DSS (2%) IBD mouse model, preventive experiment; type: in vivo; details: 500 mg/kg/day oral with 2% DSS, day 7
Protocol: To assess the in vivo efficacy for preventive and therapeutic activities of these compounds on IBD, two experiments were designed and tested using the dextran sulfate sodium (DSS) experimental mouse model for human IBD. For the preventive experiment, compounds 9A and 39B were simultaneously administrated orally with 2% DSS at the dose of 500 mg/kg/day. Vehicle alone and glucocorticoid (dexamethasone 20 mg/kg/day) were used as controls. At day 7, mice were sacrificed, examined for stool appearance, diarrhea and colon macroscopic damage including ulceration, inflammation and adhesion. Colon samples were also taken and fixed in 10% formalin for histological assessment of architecture, ulceration, inflammation and serosal damage.

[7] = test system: human white blood cells (WBC); assay: Migration of human white blood cells induced by leukotriene B4 (agarose plate); type: cell-based; details: for % Migration: towards LTB4, 5 h
Protocol: Experiment: WBC collected from donors was mixed with equal volume of 3% dextran (in 0.15M NaCl). The red blood cells were sedimented (45 minutes, room temperature) and removed. Any remaining red blood cells in the plasma were removed by adding 150 mM of Tris-NH4Cl. The leukocyte-rich plasma was washed twice in Hanks balanced salts solution containing 20 mM HEPES. The WBC was then transferred to RPMI-1640 medium and adjusted to a density of 5×10^7 cells/ml. An agarose plate assay system (Nelson et al. 1978) was used to measure the WBC migration. Briefly, a 0.8% agarose solution was prepared with complete RPMI-1640 cell culture medium. About 3.5 ml of this agarose solution was transferred to a glass slide before it solidified. Wells were made on the slide in a 3×6 array fashion (02 mm, inter-well distance 3 mm) once the agarose had solidified. LTB4 was dissolved in anhydrous ethanol to 104 ng/ml and further diluted with the RPMI-1640 medium to 10 ng/ml for the test. Compound 39B was dissolved in DMSO, diluted with RPMI-1640 to 10^3 μg/ml and tested at the following concentrations: 100, 10, 1, 0.1 and 0.01 μg/ml. Ten microlitres of cell suspension with different concentrations of compound 39B was added to each well of the center row of the three rows of wells. The same volume of LTB4 in RPMI-1640 medium or the medium alone was added to wells in the other rows and served as controls. After 5 h incubation (5% CO2, 37° C.) the test slides were fixed with 100% methanol (30 min) and dried at 4° C. (overnight). The slides were then examined microscopically. The migration index was defined as the average distances that cells migrated towards the positive LTB4 well divided by that of spontaneous migration. The percentage migration was compared between treatment and the non-drug control. The dose-effect relationship was determined by plotting the percentage chemotaxis vs concentration for IC50 values.

[8] = test system: acute colon inflammation induced by 5% DSS; assay: DSS (5%) acute colon inflammation mouse model, therapeutic experiment; type: in vivo
Description: To assess the in vivo efficacy for preventive and therapeutic activities of these compounds on IBD, two experiments were designed and tested using the dextran sulfate sodium (DSS) experimental mouse model for human IBD.
For the therapeutic experiment a further experiment was done to test different doses of 9A on severe, acute intestinal inflammation in mice induced by a high dose of DSS (5%). In this experiment, drug treatment started from day 3 post DSS induction when disease symptom was established. 9A (200 mg/kg or 100 mg/kg) was administered through oral […] once daily and a commercial drug, sulfasalazine (SASP, 100 mg/kg/day) was used as positive control. Experiment was terminated at day 7 and the efficacy was assessed.

[9] = test system: Human keratinocytes; assay: Human keratinocyte proliferation (MTT); type: cell-based; details: for IC50: Homo sapiens, Keratinocyte, in the presence of IFN-γ, MTT after 48 hours
Protocol: Human keratinocytes were cultured in the presence of IFN-γ and titrated concentrations of drug or the vehicle. The MTT assay was performed after 48 hours of culture.

[10] = PHA-stimulated, read-out: IC50 against human PBMC proliferation
[11] = Homo sapiens, PBMC, PHA-stimulated, read-out: IC50 against human PBMC proliferation
[12] = Homo sapiens, PBMC, PHA-stimulated, read-out: IC50 against human PBMC proliferation (unit inferred)

- IC50 [4]: 4.16 µM
SMILES: CC(C)c1c(O)cc(C=Cc2ccc(F)cc2)cc1O [Compound 39B]
- IC50 [1, 10]: 7.36 µM
- TNF-α levels in mice blood induced by LPS [2]: decreased significantly
- TNF-α [2]: 601.6 ± 211.9 pg/mL
- VEGF ([3]; 1.6 μM): 34.4 ± 2.0 pg/mL
- VEGF ([3]; 8 μM): 33.6 ± 1.8 pg/mL
- decrease of VEGF protein concentration ([3]; 40 μM, 24-h treatment): 100%
- VEGF ([3]; 40 μM): 0 ± 0 pg/mL
- % edema inhibition ([5]; 0.3% single topical): 85% and 85.2%
- macroscopic and microscopic diseases scores [6]: significantly decreased
- inhibition of migration of WBC towards LTB4 [7]: dose-dependent manner
- % Migration ([7]; 0.32 μM): 88.46 ± 18.6%
- % Migration ([7]; 1.6 μM): 83.85 ± 15.9%
- % Migration ([7]; 8 μM): 58.46 ± 4.3%
- % Migration ([7]; 40 μM): 13.07 ± 5.8%

- melting point: 68 to 70 °C
SMILES: CCCCCCCCCCCCCCc1c(OC)cc(/C=C/c2ccccc2)cc1OC [Compound 15A-b, 3,5-Dimethoxy-4-myristyl-trans-stilbene]

- melting point: 125 to 128 °C
SMILES: CCCCCCCCCCCCCCc1c(O)cc(/C=C/c2ccccc2)cc1O [Compound 16A-b, 3,5-Dihydroxy-4-myristyl-trans-stilbene]

SMILES: C=C1/C(=C\C=C2/CCC[C@]3(C)[C@@H]([C@H](C)CCCC(C)(C)O)CC[C@@H]23)C[C@@H](O)C[C@@H]1O [Calcitriol, reference compound]
- % edema inhibition ([5]; 0.01% single topical): 31% and 31.2%

- melting point: 64 to 66 °C
SMILES: COc1cc(/C=C/c2ccccc2)cc(OC)c1C(C)C [Compound 8A, 3,5-Dimethoxy-4-isopropyl-trans-stilbene]

- melting point: 70 to 73 °C
SMILES: CCc1c(OC)cc(/C=C/c2ccccc2)cc1OC [Compound 15A-a, 3,5-Dimethoxy-4-ethyl-trans-stilbene]

SMILES: O=C(O)c1cc(/N=N/c2ccc(S(=O)(=O)Nc3ccccn3)cc2)ccc1O [SASP, sulfasalazine, reference compound]
- Bleeding score ([8]; 100 mg/kg oral daily, day seven, mean ± SEM, n = 9, 1 = normal, 2 = bloody stool, 4 = gross bleeding): 3.6 ± 0.24
- Diarrheal score ([8]; 100 mg/kg oral daily, day seven, mean ± SEM, n = 9, 1 = normal, 2 = loose stools, 4 = diarrhea): 2.8 ± 0.49
- survival rate vs control treatment ([8]; 5% DSS, treatment from day 3): significantly higher survival rate

SMILES: C[C@@H]1C[C@H]2[C@@H]3CCC4=CC(=O)C=C[C@]4(C)[C@@]3(F)[C@@H](O)C[C@]2(C)[C@@]1(O)C(=O)CO [Dexamethasone, dexamethasone, reference compound]
- TNF-α [2]: 281.3 ± 67.2 pg/mL

- melting point: 149 to 152 °C
SMILES: COc1cc(/C=C/c2ccccc2)cc(OC)c1Br [Compound 14A, 3,5-Dimethoxy-4-bromo-trans-stilbene]

- IC50 [4]: 2.55 µM
SMILES: CCCc1c(O)cc(C=Cc2ccc(O)cc2)cc1O [Compound 13B, 5-[2-(4-Hydroxyphenyl)ethenyl]-2-1-propyl-1,3-benzenediol]
- potency in inhibiting PBMC proliferation relative to resveratrol [1]: 20 times
- IC50 [1, 11]: 2.97 µM
- IC50 [1, 12]: 2.97 µM
- potency in inhibiting IFN-γ production relative to resveratrol [4]: more than 15 times
- potency on keratinocyte proliferation relative to resveratrol [9]: more than 10 times
- IC50 [9]: 4.3 µM

- melting point: 143 to 146 °C
SMILES: CCc1c(O)cc(/C=C/c2ccccc2)cc1O [Compound 16A-a, 3,5-Dihydroxy-4-ethyl-trans-stilbene]

- IC50 [4]: 39.2 µM
SMILES: Oc1ccc(C=Cc2cc(O)cc(O)c2)cc1 [Resveratrol, resveratrol, reference compound]
- IC50 [1, 11]: > 50 µM
- IC50 [1, 12]: > 50 µM
- IC50 against human PBMC proliferation ([1]; PHA-stimulated, 50 the highest concentration tested): > 50 µM
- IC50 [9]: > 50 µM

- IC50 [4]: 4.29 µM
SMILES: CC(C)c1c(O)cc(C=Cc2cccc(F)c2)cc1O [Compound 38B, 5-[2-(3-Fluorophenyl)ethenyl]-2-1-propylphenyl-1,3-diol]
- IC50 [1, 10]: 9.91 µM

- IC50 [4]: 3.8 µM
SMILES: CCCc1c(O)cc(C=Cc2ccccc2F)cc1O [Compound 37B, 5-[2-(2-Fluorophenyl)ethenyl]-2-1-propyl-1,3-benzenediol]
- IC50 [1, 11]: 5.62 µM
- TNF-α levels in mice blood induced by LPS [2]: decreased significantly
- TNF-α [2]: 638.9 ± 273.0 pg/mL
